Biological target: T1, peroxiredoxin-2 (Prdx2) (Homo sapiens, UniProt P32119)
T1 construct: His-tagged recombinant Prdx2 (rhPrdx2)
T1 sequence (P32119 2-198): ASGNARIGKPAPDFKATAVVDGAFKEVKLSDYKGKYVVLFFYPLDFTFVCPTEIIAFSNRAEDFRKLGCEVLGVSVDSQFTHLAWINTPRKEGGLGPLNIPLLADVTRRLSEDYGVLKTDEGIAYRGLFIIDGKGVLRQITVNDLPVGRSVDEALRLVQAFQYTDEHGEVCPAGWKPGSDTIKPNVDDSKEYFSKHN
Test: ITC (also SPR KD […]; peroxidase inhibition IC50 […])
Assay type: binding

CC1=C(O)C(=O)C=C2C1=CC=C1[C@@]2(C)CC[C@@]2(C)[C@@H]3C[C@](C)(C(=O)O)CC[C@]3(C)CC[C@]12C [Celastrol]
Kd: 650 nM
